In ChEMBL document CHEMBL2429824, “Computer-assisted design of dual-target anti-HIV-1 compounds” (Med Chem Res, 2013):

How the values were obtained:
[1] = test system: Human immunodeficiency virus 1; experiment: Antiviral activity against HIV-1 infected in human MT-4 cells; type: functional, organism-based; conditions: Human immunodeficiency virus 1, MT4
[2] = target: Human immunodeficiency virus type 1 reverse transcriptase (Human immunodeficiency virus 1, UniProt Q72547); experiment: Inhibition of HIV-1 reverse transcriptase

| IC50 [1] [µM] | IC50 [2] [µM] | SMILES |
| --- | --- | --- |
| 6.03 |  | [N-]=[N+]=N[C@H]1C[C@H](n2cnc3nc(N)nc(Cl)c32)O[C@@H]1CO |
| 11 |  | CCCN(C)c1nc(N)nc2ncn([C@H]3C[C@H](N=[N+]=[N-])[C@@H](CO)O3)c12 |
| 8.91 |  | [N-]=[N+]=N[C@H]1C[C@H](n2cnc3nc(N)nc(N4CCC4)c32)O[C@@H]1CO |
| 112 |  | [N-]=[N+]=N[C@H]1C[C@H](n2cnc3nc(N)nc(NCCc4ccccc4)c32)O[C@@H]1CO |
| 2 |  | [N-]=[N+]=N[C@H]1C[C@H](n2cnc3nc(N)nc(N)c32)O[C@@H]1CO |
| 20.9 |  | CN(C)c1nc(N)nc2ncn([C@H]3C[C@H](N=[N+]=[N-])[C@@H](CO)O3)c12 |
| 34.7 |  | N#Cc1c(N)cccc1S(=O)(=O)c1cccc(C(F)(F)F)c1 |
| 12 |  | CCN(C)c1nc(N)nc2ncn([C@H]3C[C@H](N=[N+]=[N-])[C@@H](CO)O3)c12 |
| 8.91 |  | CCCOc1nc(N)nc2ncn([C@H]3C[C@H](N=[N+]=[N-])[C@@H](CO)O3)c12 |
| 3.98 |  | CN(c1nc(N)nc2ncn([C@H]3C[C@H](N=[N+]=[N-])[C@@H](CO)O3)c12)C1CC1 |
| 18.2 |  | [N-]=[N+]=N[C@H]1C[C@H](n2cnc3nc(N)nc(NC4CC4)c32)O[C@@H]1CO |
| 21.9 |  | CC(C)Oc1nc(N)nc2ncn([C@H]3C[C@H](N=[N+]=[N-])[C@@H](CO)O3)c12 |
|  | 6.31 | N#Cc1c(N)cccc1[S+]([O-])c1cc(Cl)ccc1Cl (centres undefined) |
| 0.912 |  | COc1cccc(S(=O)(=O)c2cccc(N)c2C#N)c1 |
| 19.1 |  | CCCCOc1nc(N)nc2ncn([C@H]3C[C@H](N=[N+]=[N-])[C@@H](CO)O3)c12 |
| 52.5 |  | CNc1nc(N)nc2ncn([C@H]3C[C@H](N=[N+]=[N-])[C@@H](CO)O3)c12 |
| 28.8 |  | CCCCNc1nc(N)nc2ncn([C@H]3C[C@H](N=[N+]=[N-])[C@@H](CO)O3)c12 |
| 14.1 |  | [N-]=[N+]=N[C@H]1C[C@H](n2cnc3nc(N)nc(NC4CCC4)c32)O[C@@H]1CO |
|  | 0.912 | COc1cc([S+]([O-])c2cccc(N)c2C#N)cc(C(F)(F)F)c1 (centres undefined) |
| 7.94 |  | [N-]=[N+]=N[C@H]1C[C@H](n2cnc3nc(N)nc(N4CCCC4)c32)O[C@@H]1CO |
| 5.01 |  | [N-]=[N+]=N[C@H]1C[C@H](n2cnc3nc(N)nc(O)c32)O[C@@H]1CO |
| 8.91 |  | COc1nc(N)nc2ncn([C@H]3C[C@H](N=[N+]=[N-])[C@@H](CO)O3)c12 |
| 28.2 |  | [N-]=[N+]=N[C@H]1C[C@H](n2cnc3nc(N)nc(Oc4ccccc4)c32)O[C@@H]1CO |
| 17 |  | CCNc1nc(N)nc2ncn([C@H]3C[C@H](N=[N+]=[N-])[C@@H](CO)O3)c12 |
| 7.94 |  | [N-]=[N+]=N[C@H]1C[C@H](n2cnc3nc(N)nc(OCc4ccccc4)c32)O[C@@H]1CO |
| 22.9 |  | CCOc1nc(N)nc2ncn([C@H]3C[C@H](N=[N+]=[N-])[C@@H](CO)O3)c12 |
| 12 |  | CCCNc1nc(N)nc2ncn([C@H]3C[C@H](N=[N+]=[N-])[C@@H](CO)O3)c12 |
| 5.01 |  | [N-]=[N+]=N[C@H]1C[C@H](n2cnc3nc(N)nc(OC4CCC4)c32)O[C@@H]1CO |

| SMILES | IC50 [1] [µM] | IC50 [2] [µM] |
| --- | --- | --- |
| COc1ccc(S(=O)(=O)c2cccc(N)c2C#N)cc1 |  | 13.2 |
